From patent US20240384350A1, “METHODS OF TREATING CANCER WITH KINASE INHIBITORS” (BOARD OF REGENTS, THE UNIVERSITY OF TEXAS SYSTEM, priority 2021, published 2024)
Values belong to the molecule of their own block, whether it stands above or below them.

Assays:
Assay in all cases: Ba/F3 drug screening, Cell Titer Glo, IC50 Mut/WT
Type in all cases: cell-based
[1] = target: T1, EGFR Ex19del L718V (Homo sapiens, UniProt P00533, DEL746-750/L718V)
T1 construct: expressed in transfected cells; host or cells: Ba/F3
Procedure: (§1) Data represent the ratio of the IC50 value for a given TKI for cells with a PACC EGFR mutation to the IC50 value for cells with wildtype EGFR.
(§2) Ba/F3 cell generation, drug screening, and IC50 approximations. Ba/F3 cells were obtained as a gift from Dr. Gordon Mills (MD Anderson Cancer Center), and maintained in RPMI (Sigma) containing 10% FBS, 1% penicillin/streptomycin, and 10 ng/ml recombinant mIL-3 (R&D Biosystems). To establish stable Ba/F3 cell lines, Ba/F3 cells were transduced with retroviruses containing mutant EGFR plasmids for 12-24 hours.
(§3) After 48-72 hours of transduction, 2 μg/ml puromycin (Invitrogen) was added to Ba/F3 cell lines in complete RPMI. To select for EGFR positive cell lines, cells were stained with PE-EGFR (Biolegend) and sorted by FACS. After sorting, EGFR positive cells were maintained in RPMI containing 10% FBS, 1% penicillin/streptomycin, and 1 ng/ml EGF to support cell viability. Drug screening was performed as previously described^41,42. Shortly, cells were plated in 384-well plates (Greiner Bio-One) at 2000-3000 cells per well in technical triplicate. Seven different concentrations of TKIs or DMSO vehicle were added to reach a final volume of 40 μL per well. After 72 hours, 11 μL of Cell Titer Glo (Promega) was added to each well. Plates were incubated for a minimum of 10 minutes, and bioluminescence was determined using a FLUOstar OPTIMA plate reader (BMG LABTECH). Raw bioluminescence values were normalized to DMSO control treated cells, and values were plotted in GraphPad Prism. […] Drug screens were performed in technical triplicate on each plate and either duplicate or triplicate biological replicates.

[2] = target: T2, EGFR E709K L858R (Homo sapiens, UniProt P00533, E709K/L858R); conditions: Classical-Like, 72 hours
T2 construct: expressed in transfected cells; host or cells: Ba/F3 cells, retroviral pBabe-Puro vector
Procedure: (§4) Data represent the ratio of the IC50 value for a given TKI for cells with a classical-like EGFR mutation to the IC50 value for cells with wildtype EGFR.
as §2
(§5) After 48-72 hours of transduction, 2 μg/ml puromycin (Invitrogen) was added to Ba/F3 cell lines in complete RPMI. To select for EGFR positive cell lines, cells were stained with PE-EGFR (Biolegend) and sorted by FACS. After sorting, EGFR positive cells were maintained in RPMI containing 10% FBS, 1% penicillin/streptomycin, and 1 ng/ml EGF to support cell viability. […] Shortly, cells were plated in 384-well plates (Greiner Bio-One) at 2000-3000 cells per well in technical triplicate. Seven different concentrations of TKIs or DMSO vehicle were added to reach a final volume of 40 μL per well. After 72 hours, 11 μL of Cell Titer Glo (Promega) was added to each well. Plates were incubated for a minimum of 10 minutes, and bioluminescence was determined using a FLUOstar OPTIMA plate reader (BMG LABTECH). Raw bioluminescence values were normalized to DMSO control treated cells, and values were plotted in GraphPad Prism. […] Drug screens were performed in technical triplicate on each plate and either duplicate or triplicate biological replicates.

[3] = target: T3, EGFR L833V (Homo sapiens, UniProt P00533, L833V); conditions: Classical-Like, 72 hours
T3 construct: expressed in transfected cells; host or cells: Ba/F3 cells, retroviral pBabe-Puro vector

[4] = target: T4, EGFR L858R T790M V843I (Homo sapiens, UniProt P00533, L858R/T790M/V843I); conditions: T790M-like-3S, 72 hours
T4 construct: expressed in transfected cells; host or cells: Ba/F3
Procedure: Data represent the ratio of the IC50 value for a given TKI for cells with a T790M-like-3S EGFR mutation to the IC50 value for cells with wildtype EGFR.
as §2, §3

[5] = target: T5, EGFR L718Q T790M (Homo sapiens, UniProt P00533, L718Q/T790M); conditions: T790M-like-3R, 72 hours
T5 construct: expressed in transfected cells; host or cells: Ba/F3

[6] = target: T6, EGFR G719A/R776C (Homo sapiens, UniProt P00533, G719A/R776C)
T6 construct: expressed in transfected cells; host or cells: Ba/F3

[7] = target: T7, EGFR G724S T790M (Homo sapiens, UniProt P00533, G724S/T790M); conditions: T790M-like-3R, 72 hours
T7 construct: expressed in transfected cells; host or cells: Ba/F3
Procedure: (§6) Data represent the ratio of the IC50 value for a given TKI for cells with a T790M-like-3R EGFR mutation to the IC50 value for cells with wildtype EGFR.
as §2
(§7) After 48-72 hours of transduction, 2 μg/ml puromycin (Invitrogen) was added to Ba/F3 cell lines in complete RPMI. To select for EGFR positive cell lines, cells were stained with PE-EGFR (Biolegend) and sorted by FACS. After sorting, EGFR positive cells were maintained in RPMI containing 10% FBS, 1% penicillin/streptomycin, and 1 ng/ml EGF to support cell viability. […] Shortly, cells were plated in 384-well plates (Greiner Bio-One) at 2000-3000 cells per well in technical triplicate. Seven different concentrations of TKIs or DMSO vehicle were added to reach a final volume of 40 μL per well. After 72 hours, 11 μL of Cell Titer Glo (Promega) was added to each well. Plates were incubated for a minimum of 10 minutes, and bioluminescence was determined using a FLUOstar OPTIMA plate reader (BMG LABTECH). Raw bioluminescence values were normalized to DMSO control treated cells, and values were plotted in GraphPad Prism. […] Drug screens were performed in technical triplicate on each plate and either duplicate or triplicate biological replicates. […] Statistical differences between groups were determined by ANOVA as described in the figure legends.

[8] = target: T8, EGFR L861Q (Homo sapiens, UniProt P00533, L861Q); conditions: Classical-Like, 72 hours
T8 construct: expressed in transfected cells; host or cells: Ba/F3 cells, retroviral pBabe-Puro vector
Procedure: as §4, §2, §5

[9] = target: T9, EGFR R776C (Homo sapiens, UniProt P00533, R776C)
T9 construct: host or cells: Ba/F3

[10] = target: T10, EGFR S768I/V769L (Homo sapiens, UniProt P00533, S768I/V769L)
T10 construct: host or cells: Ba/F3
Procedure: as §1, §2, §3

[11] = target: T11, EGFR S768I/T790M (Homo sapiens, UniProt P00533, S768I/T790M); conditions: T790M-like-3S, 72 hours
T11 construct: expressed in transfected cells; host or cells: Ba/F3

[12] = target: T12, EGFR G724S (Homo sapiens, UniProt P00533, G724S)
T12 construct: expressed in transfected cells; host or cells: Ba/F3
Procedure: as §1, §2, §3

[13] = target: T13, EGFR L718Q (Homo sapiens, UniProt P00533, L718Q)
T13 construct: expressed in transfected cells; host or cells: Ba/F3

[14] = target: T14, EGFR L747P (Homo sapiens, UniProt P00533, L747P)
T14 construct: expressed in transfected cells; host or cells: Ba/F3

[15] = target: T15, EGFR Ex19del/L792H (Homo sapiens, UniProt P00533, DEL746-750/L792H)
T15 construct: expressed in transfected cells; host or cells: Ba/F3
Procedure: as §1, §2, §3

[16] = target: T16, EGFR S768I (Homo sapiens, UniProt P00533, S768I)
T16 construct: expressed in transfected cells; host or cells: Ba/F3
Procedure: as §1, §2
After 48-72 hours of transduction, 2 μg/ml puromycin (Invitrogen) was added to Ba/F3 cell lines in complete RPMI. To select for EGFR positive cell lines, cells were stained with PE-EGFR (Biolegend) and sorted by FACS. After sorting, EGFR positive cells were maintained in RPMI containing 10% FBS, 1% penicillin/streptomycin, and 1 ng/ml EGF to support cell viability. Drug screening was performed as previously described^41,42. Shortly, cells were plated in 384-well plates (Greiner Bio-One) at 2000-3000 cells per well in technical triplicate. Seven different concentrations of TKIs or DMSO vehicle were added to reach a final volume of 40 μL per well. After 72 hours, 11 μL of Cell Titer Glo (Promega) was added to each well. Plates were incubated for a minimum of 10 minutes, and bioluminescence was determined using a FLUOstar OPTIMA plate reader (BMG LABTECH). Raw bioluminescence values were normalized to DMSO control treated cells, and values were plotted in GraphPad Prism. […] Drug screens were performed in technical triplicate on each plate and either duplicate or triplicate biological replicates. […] Statistical differences between groups were determined by ANOVA as described in the figure legends.

[17] = target: T17, EGFR L858R G724S (Homo sapiens, UniProt P00533, G724S/L858R)
T17 construct: expressed in transfected cells; host or cells: Ba/F3 (retroviral transduction, pBabe-Puro based vectors)
Procedure: as §1, §2, §3

[18] = target: T18, EGFR L858R T790M L718V (Homo sapiens, UniProt P00533, L718V/L858R/T790M); conditions: T790M-like-3R, 72 hours
T18 construct: expressed in transfected cells; host or cells: Ba/F3
Procedure: as §6, §2, §7

[19] = target: T19, EGFR L858R/T790M/C797S (Homo sapiens, UniProt P00533, C797S/L858R/T790M); conditions: T790M-like-3R, 72 hours
T19 construct: expressed in transfected cells; host or cells: Ba/F3
Procedure: as §6, §2, §7

[20] = system: EGFR I740dupIPVAK
[21] = target: T20, EGFR K754E (Homo sapiens, UniProt P00533, K754E); conditions: Classical-Like, 72 hours
T20 construct: expressed in transfected cells; host or cells: Ba/F3 cells, retroviral pBabe-Puro vector
Procedure: as §4, §2, §5

[22] = target: T21, EGFR L861R (Homo sapiens, UniProt P00533, L861R); conditions: Classical-Like, 72 hours
T21 construct: expressed in transfected cells; host or cells: Ba/F3 cells, retroviral pBabe-Puro vector (vector made by GeneScript from EGFR WT)

[23] = target: T22, EGFR S768dupSVD V769M (Homo sapiens, UniProt P00533, INS768MDS/V769M); conditions: Ex20, 72 hours
T22 construct: expressed in transfected cells; host or cells: Ba/F3 cells, retroviral pBabe-Puro vector (vector made by GeneScript from EGFR S768dupSVD, c.2305G > A)

[24] = target: T23, EGFR R776H (Homo sapiens, UniProt P00533, R776H)
T23 construct: host or cells: Ba/F3

[25] = target: T24, EGFR Ex19del/C797S (Homo sapiens, UniProt P00533, C797S/DEL746-750)
T24 construct: expressed in transfected cells; host or cells: Ba/F3

[26] = target: T25, EGFR V769L (Homo sapiens, UniProt P00533, V769L)
T25 construct: expressed in transfected cells; host or cells: Ba/F3
Procedure: as §1, §2, §3

SMILES: C=CC(=O)N[C@H]1C=C(C)c2c(-c3cnc4ccccc4c3)c3c(N)ncnc3n2C1 [TAS 6417]
ratio of the IC50 value for cells with a PACC EGFR mutation to the IC50 value for cells with wildtype EGFR ([1]; Ba/F3 cells, EGFR Ex19del L718V (PACC), Mut/WT): 0.0009364 | ratio of IC50 for cells with mutant EGFR to IC50 for cells with wildtype EGFR (Mut/WT) [2]: 0.002607 | ratio of IC50 for cells with mutant EGFR to IC50 for cells with wildtype EGFR (Mut/WT) [3]: 0.03111 | ratio of IC50 for cells with mutant EGFR to IC50 for cells with wildtype EGFR (Mut/WT) [4]: 0.07336 | ratio of IC50 for cells with mutant EGFR to IC50 for cells with wildtype EGFR (Mut/WT) [5]: 0.02624 | ratio of the IC50 value for cells with a PACC EGFR mutation to the IC50 value for cells with wildtype EGFR ([6]; Ba/F3 cells, EGFR G719A/R776C (PACC), Mut/WT): 3.055 | ratio of IC50 for cells with mutant EGFR to IC50 for cells with wildtype EGFR (Mut/WT) [7]: 0.1693 | ratio of IC50 for cells with mutant EGFR to IC50 for cells with wildtype EGFR (Mut/WT) [8]: 0.02761 | ratio of the IC50 value for cells with a PACC EGFR mutation to the IC50 value for cells with wildtype EGFR ([9]; Ba/F3 cells, EGFR R776C (PACC), Mut/WT): 0.1072 | ratio of the IC50 value for cells with a PACC EGFR mutation to the IC50 value for cells with wildtype EGFR ([10]; Ba/F3 cells, EGFR S768I/V769L (PACC), Mut/WT): 0.004702 | ratio of IC50 for cells with mutant EGFR to IC50 for cells with wildtype EGFR (Mut/WT) [11]: 0.1153 | ratio of the IC50 value for cells with a PACC EGFR mutation to the IC50 value for cells with wildtype EGFR ([12]; Ba/F3 cells, EGFR G724S (PACC), Mut/WT): 3.055 | ratio of the IC50 value for cells with a PACC EGFR mutation to the IC50 value for cells with wildtype EGFR ([13]; Ba/F3 cells, EGFR L718Q (PACC), Mut/WT): 0.02239 | ratio of the IC50 value for cells with a PACC EGFR mutation to the IC50 value for cells with wildtype EGFR ([14]; Ba/F3 cells, EGFR L747P (PACC), Mut/WT): 0.1949 | ratio of the IC50 value for cells with a PACC EGFR mutation to the IC50 value for cells with wildtype EGFR ([15]; Ba/F3 cells, EGFR Ex19del/L792H (PACC), Mut/WT): 0.008269 | ratio of the IC50 value for cells with a PACC EGFR mutation to the IC50 value for cells with wildtype EGFR ([16]; Ba/F3 cells, EGFR S768I (PACC), Mut/WT): 0.0846 | ratio of the IC50 value for cells with a PACC EGFR mutation to the IC50 value for cells with wildtype EGFR ([17]; Ba/F3 cells, EGFR L858R G724S (PACC), Mut/WT): 0.01631 | ratio of IC50 for cells with mutant EGFR to IC50 for cells with wildtype EGFR (Mut/WT) [18]: 2.011 | ratio of IC50 for cells with mutant EGFR to IC50 for cells with wildtype EGFR (Mut/WT) [19]: 4.897 | ratio of the IC50 value for cells with a PACC EGFR mutation to the IC50 value for cells with wildtype EGFR ([20]; Ba/F3 cells, EGFR I740dupIPVAK (PACC), Mut/WT): 0.3555 | ratio of IC50 for cells with mutant EGFR to IC50 for cells with wildtype EGFR (Mut/WT) [21]: 0.004475 | ratio of IC50 for cells with mutant EGFR to IC50 for cells with wildtype EGFR (Mut/WT) [22]: 0.02984 | ratio of IC50 for cells with mutant EGFR to IC50 for cells with wildtype EGFR (Mut/WT) [23]: 0.02679 | ratio of the IC50 value for cells with a PACC EGFR mutation to the IC50 value for cells with wildtype EGFR ([24]; Ba/F3 cells, EGFR R776H (PACC), Mut/WT): 0.09 | ratio of the IC50 value for cells with a PACC EGFR mutation to the IC50 value for cells with wildtype EGFR ([25]; Ba/F3 cells, EGFR Ex19del/C797S (PACC), Mut/WT): 1.093 | ratio of the IC50 value for cells with a PACC EGFR mutation to the IC50 value for cells with wildtype EGFR ([26]; Ba/F3 cells, EGFR V769L (PACC), Mut/WT): 0.159

ratio of IC50 for cells with mutant EGFR to IC50 for cells with wildtype EGFR (Mut/WT) ([1]; PACC, Ex19del L718V, Ba/F3, 72 hours): 0.1214 | ratio of IC50 for cells with mutant EGFR to IC50 for cells with wildtype EGFR (Mut/WT) [2]: 0.005792 | ratio of IC50 for cells with mutant EGFR to IC50 for cells with wildtype EGFR (Mut/WT) [3]: 0.003152 | ratio of IC50 for cells with mutant EGFR to IC50 for cells with wildtype EGFR (Mut/WT) [4]: 70.97 | ratio of IC50 for cells with mutant EGFR to IC50 for cells with wildtype EGFR (Mut/WT) [5]: 16.46 | ratio of IC50 for cells with mutant EGFR to IC50 for cells with wildtype EGFR (Mut/WT) ([6]; PACC, G719A/R776C, Ba/F3, 72 hours): 0.03266 | ratio of IC50 for cells with mutant EGFR to IC50 for cells with wildtype EGFR (Mut/WT) [7]: 1.041 | ratio of IC50 for cells with mutant EGFR to IC50 for cells with wildtype EGFR (Mut/WT) [8]: 0.05346 | ratio of IC50 for cells with mutant EGFR to IC50 for cells with wildtype EGFR (Mut/WT) ([9]; PACC, R776C, Ba/F3, 72 hours): 0.02009 | ratio of IC50 for cells with mutant EGFR to IC50 for cells with wildtype EGFR (Mut/WT) ([10]; PACC, S768I/V769L, Ba/F3, 72 hours): 0.713 | ratio of IC50 for cells with mutant EGFR to IC50 for cells with wildtype EGFR (Mut/WT) [11]: 60.19 | ratio of IC50 for cells with mutant EGFR to IC50 for cells with wildtype EGFR (Mut/WT) ([12]; PACC, G724S, Ba/F3, 72 hours): 8.499 | ratio of IC50 for cells with mutant EGFR to IC50 for cells with wildtype EGFR (Mut/WT) ([13]; PACC, L718Q, Ba/F3, 72 hours): 0.06989 | ratio of IC50 for cells with mutant EGFR to IC50 for cells with wildtype EGFR (Mut/WT) ([14]; PACC, L747P, Ba/F3, 72 hours): 2.085 | ratio of IC50 for cells with mutant EGFR to IC50 for cells with wildtype EGFR (Mut/WT) ([15]; PACC, Ex19del/L792H, Ba/F3, 72 hours): 1.041 | ratio of IC50 for cells with mutant EGFR to IC50 for cells with wildtype EGFR (Mut/WT) ([16]; PACC, S768I, Ba/F3, 72 hours): 0.3863 | ratio of IC50 for cells with mutant EGFR to IC50 for cells with wildtype EGFR (Mut/WT) ([17]; PACC, L858R G724S, Ba/F3, 72 hours): 0.02628 | ratio of IC50 for cells with mutant EGFR to IC50 for cells with wildtype EGFR (Mut/WT) [18]: 151.6 | ratio of IC50 for cells with mutant EGFR to IC50 for cells with wildtype EGFR (Mut/WT) [19]: 20.7 | ratio of IC50 for cells with mutant EGFR to IC50 for cells with wildtype EGFR (Mut/WT) ([20]; PACC, I740dupIPVAK, Ba/F3, 72 hours): 0.5725 | ratio of IC50 for cells with mutant EGFR to IC50 for cells with wildtype EGFR (Mut/WT) [21]: 0.00723 | ratio of IC50 for cells with mutant EGFR to IC50 for cells with wildtype EGFR (Mut/WT) [22]: 0.01926 | ratio of IC50 for cells with mutant EGFR to IC50 for cells with wildtype EGFR (Mut/WT) [23]: 0.33 | ratio of IC50 for cells with mutant EGFR to IC50 for cells with wildtype EGFR (Mut/WT) ([24]; PACC, R776H, Ba/F3, 72 hours): 0.1639 | ratio of IC50 for cells with mutant EGFR to IC50 for cells with wildtype EGFR (Mut/WT) ([25]; PACC, Ex19del/C797S, Ba/F3, 72 hours): 0.2272 | ratio of IC50 for cells with mutant EGFR to IC50 for cells with wildtype EGFR (Mut/WT) ([26]; PACC, V769L, Ba/F3, 72 hours): 0.3024
SMILES: CN(C)C/C=C/C(=O)Nc1cc2c(Nc3ccc(Cl)c(Br)c3)ncnc2cn1 [Tarlox-TKI]
